Patent US9120795B2, “Crystalline form of a β-lactamase inhibitor” (Cubist Pharmaceuticals, Inc., priority 2013, dated 2015)

Legend:
Assay in all cases: Synergy MIC (sMIC) assay
Assay type in all cases: cell-based, E. coli
Eco isogenic, CTX-M-15 = conditions: CTX-M-15, isogenic Eco; CXA-101 at 4 μg/mL
Description: (§1) The synergy MIC (sMIC) assay determines the concentration of the BLI required to potentiate the activity of a fixed concentration of a β-lactam antibiotic against β-lactamase producing bacterial strains. The experimental protocol was performed according to Clinical and Laboratory Standards Institute (CLSI) guidelines with modifications as described below (CLSI guidelines can be derived from the CLSI document M07-A9 published in January 2012: “Methods for Dilution Antimicrobial Susceptibility Tests for Bacteria That Grow Aerobically; Approved Standard-Ninth Edition”). The assay is set-up by serially diluting the BLI across 11 of the 12 wells in each row of a 96-well broth microdilution assay plate, adding the β-lactam at a fixed concentration to all wells in the assay plate, inoculating the assay plate with bacterial strains, and determining the lowest concentration of BLI required to inhibit overnight bacterial growth.
(§2) To prepare for MIC testing, frozen glycerol stocks of clinical isolates (Klebsiella pneumoniae, Eschericia coli, Enterobacter spp, Citrobacter spp, or Pseudomonas aeruginosa) were used to streak for isolated colonies on rich, non-selective, tryptic soy agar containing 5% sheep's blood (TSAB). Frozen glycerol stocks of laboratory engineered, isogenic E. coli strains, which contain cloned β-lactamase expressing plasmids were used to streak for isolated colonies on rich, selective LB agar supplemented with 25 μg/mL tetracycline to maintain the plasmid. All strains were incubated at 37° C. for 18-24 hrs.
(§3) On the day of testing, primary cultures were started by scraping off 5-10 colonies from the TSAB plates containing clinical strains or the tetracycline supplemented LB plates containing engineered strains. The clinical strain material was suspended in ˜5 mL of cation adjusted Mueller Hinton Broth (CAMHB) in 14 mL culture tubes. The engineered strain material was suspended in CAMHB (supplemented with tetracycline at 25 μg/mL) in 14 mL culture tubes. All strains were incubated at 37° C. with aeration (200 rpm) for ˜2 hrs until the OD600 was ≧0.1.
(§4) The two compound components of the assay were each prepared in CAMHB and added to the 96-well broth microdilution assay plates. 50 μL of the BLI was added to each well of the assay plate in 2-fold dilutions with final concentrations ranging from 128 to 0.13 μg/mL. 25 μL of the β-lactam was added to all wells in the broth microdilution plates at a final concentration of 4 μg/mL. Inoculum cultures were prepared by standardizing the primary cultures to OD600=0.1 and then adding 20 μL of the adjusted primary culture per 1 mL CAMHB for clinical strains or CAMHB (supplemented with tetracycline at 100 μg/mL) for isogenic strains, so that the final inoculum density was ˜10^5 colony forming units per milliliter. Diluted inoculum cultures were used to inoculate 25 μL per well in 96-well broth microdilution assay plates. […]
(§5) Plates were incubated for 18-20 hours at 37° C. with aeration (200 rpm). Following incubation, growth was confirmed visually placing plates over a viewing apparatus (stand with a mirror underneath) and then OD600 was measured using a SpectraMax 340PC384 plate reader (Molecular Devices, Sunnyvale, Calif.). Growth was defined as turbidity that could be detected with the naked eye or achieving minimum OD600 of 0.1. sMIC values were defined as the lowest concentration producing no visible turbidity. […]

Eco isogenic, KPC-2 = conditions: KPC-2, isogenic Eco; CXA-101 at 4 μg/mL
Description: as §1, §2, §3, §4, §5

Eco isogenic, OXA-15 = conditions: OXA-15, isogenic Eco; CXA-101 at 4 μg/mL
Description: as §1, §2, §3, §4, §5

Eco isogenic, P99 = conditions: CXA-101 at 4 μg/mL
Description: as §1, §2, §3, §4, §5

Eco isogenic, SHV-12 = conditions: SHV-12, isogenic Eco; CXA-101 at 4 μg/mL
Description: as §1, §2, §3, §4, §5

O=C1N2C[C@@H](CC[C@H]2c2nnco2)N1OS(=O)(=O)[O-].[Na+] [Hydrate 1, sodium (2S,5R)-2-(1,3,4-oxadiazol-2-yl)-7-oxo-1,6-diazabicyclo[3.2.1]octan-6-yl sulfate]
sMIC (Eco isogenic, CTX-M-15): A (A = 0.25-0.5 μg/mL) | sMIC (Eco isogenic, KPC-2): AA (AA = <0.25 μg/mL) | sMIC (Eco isogenic, OXA-15): B (B = 1-2 μg/mL) | sMIC (Eco isogenic, P99): AA (AA = <0.25 μg/mL) | sMIC (Eco isogenic, SHV-12): B (B = 1-2 μg/mL)
